Measured values published in patent US11980633B2, “Method for treating cancer using a combination of DNA-damaging agents and DNA-PK inhibitors” (Vertex Pharmaceuticals Incorporated, priority 2016, dated 2024).

Legend:
[1] = test system: pKAP1 and pH2AX levels in MDA-MB-436 and MDA-MB-468 breast cancer cells; test: pKAP1 and pH2AX immunoblot, Compound B-2 and doxorubicin in MDA-MB-436 and MDA-MB-468 cells; type: cell-based, human; details: 500 nM doxorubicin alone; at 4 h, remained elevated to 8 h
Protocol: (§1) Materials and Methods. The human cancer cell lines A549 (CCL-185), DU4475 (HTB-123), MDA-MB-436 (HTB-130), and MDA-MB-468 (HTB-132) were obtained from American Type Culture Collection (ATCC; Manassas, VA). A 10 mM stock solution of Compound B-1 or Compound B-2 was prepared in DMSO and stored at −20° C. Etoposide and doxorubicin were purchased from Sigma-Aldrich (St. Louis, MO).
(§2) The A549 human lung cancer cell line was purchased from ATCC and was cultured in DMEM supplemented with 10% fetal bovine serum, 1× non-essential amino acids and 1× Penicillin/Streptomycin (complete medium). Cells were maintained at a subconfluent state by passaging every 2-3 days. Human breast cancer cells lines DU4475, MDA-MB-436, and MDA-MB-468 were purchased from ATCC and cultured in DMEM supplemented with 10% fetal bovine serum, 1× Glutamax and Penicillin/Streptomycin. Cells were maintained at a subconfluent state by passaging every 2-3 days.
(§3) Compound B-1 and Compound B-2 used in these experiments were not prepared as a co-crystals.
(§4) Breast cancer cell lines grown in 24-well (Costar, catalog #3526) or 6-well (Costar, catalog #3516) tissue culture plates to 70-80% confluence were pre-incubated with 1 μM Compound B-2 or DMSO for 15 min. Doxorubicin was added to a final concentration of either 100 nM or 500 nM from a 1000× stock prepared in DMSO. Cells were then incubated for the indicated amount of time and harvested for analysis.
Cell Lysis and Western Blot Analysis. […]
To determine that enhancement of DNA damage by concurrent treatment of cells with Compound B-2 and doxorubicin was not specific to DU4475 cells, two additional breast cancer cell lines, MDA-MB-436 and MDA-MB-468, were also pre-incubated with 1 μM Compound B-2 for 15 min, followed by addition of 500 nM doxorubicin. Cells were harvested at various time points following doxorubicin addition and analyzed for levels of pKAP1 and pH2AX by immunoblotting.

[2] = test system: pKAP1 and pH2AX levels in DU4475 breast cancer cells; test: pKAP1 and pH2AX immunoblot, Compound B-2 and doxorubicin in DU4475 breast cancer cells; type: cell-based, human; details: doxorubicin alone, 100 nM or 500 nM; from 4-8 h, elevated up to 24 h at 500 nM only
Protocol: as §1, §2, §3, §4
Cell Lysis and Western Blot Analysis. Cells treated with Compound B-1 or Compound B-2 in combination with chemotherapeutic agents were washed once with ice-cold PBS and then dissolved in 150 μL/well 2×SDS-PAGE sample buffer, transferred to microfuge tubes, and heated in a 105° C. heat block for 5 min for immunoblotting. A 15-μL aliquot of each SDS-PAGE sample was loaded onto 12-lane 4 20% Tris-Glycine gels and the gels were run at 125v constant voltage until the dye front reached the bottom (approximately 2 h). Following electrophoresis, separated proteins in the gels were transferred to a nitrocellulose membrane. Transfer was carried out for 2 h at 1.5 A constant current in a cold room using a Hoefer transfer apparatus (Model TE42 or TE62, Hoefer Inc, Holliston, MA) according to manufacturer's instructions. Following transfer, nitrocellulose membranes were incubated with blocking buffer for 1 h at room temperature. The nitrocellulose membranes were cut and the bottom halves were incubated overnight with 2 primary antibodies, anti-pH2AX (1/1000) and anti-total H2AX (1/1000). After washing, the appropriate fluorescently labeled secondary antibodies were added to the membranes and then imaged with pH2AX on the 800 (green) channel and total H2AX on the 700 (red) channel. The top halves of the membranes were probed sequentially for pKAP1 (1/1000) on the 700 (red) channel and then probed for total KAP1 (1/1000) and GAPDH (1/2500) on the 800 (green) channel. Image acquisition was conducted using an Odyssey fluorescent imaging system (Li-Cor Biosciences; Lincoln, NE).
Compound B-2 and doxorubicin combination in breast cancer cell lines in culture. To examine the effect of DNA-PK inhibition on pKAP1 and pH2AX in vitro, DU4475 breast cancer cells were pre-incubated with 1 μM Compound B-2 for 15 min, followed by addition of 100 nM or 500 nM doxorubicin. Cells were harvested at various time points following doxorubicin addition and analyzed for levels of pKAP1 and pH2AX by immunoblotting.

HCT 116 Xenograft Tumors = test: HCT 116 cell line xenograft: DOXIL given 16 hr prior to Compound B-2 CoX (PO), 2 weekly cycles; tumor growth (studies of Tables 4-9); type: in vivo, nu/nu nude mice; details: Table 5 study; 100 mg/kg Compound B-2 CoX qd×4 alone
Protocol: (§5) Statistical significance was defined as P<0.05.
Effect of Compound B-2 CoX Schedule in Combination with DOXIL® in HCT 116 Xenograft Tumors: The HCT 116 xenograft tumor model was selected for further examination of the effect of schedule and dose of Compound B-2 CoX in combination with DOXIL®. In this study, the effect of dosing Compound B-2 CoX qd for 2, 3, and 4 days following DOXIL® was examined.
Dose Response of DOXIL® alone and Dose Response of Compound B-2 CoX in Combination with 6 mg/kg DOXIL® in HCT 116 Xenograft Tumors: Additional investigations were conducted to determine the dose response of DOXIL® alone (1.5-6 mg/kg) in the HCT 116 xenograft tumor model. Further, a dose response of Compound B-2 CoX (25-100 mg/kg) in combination with 6 mg/kg DOXIL® was also assessed. Lastly, the efficacy of 1.5 mg/kg DOXIL® in combination with 200 mg/kg Compound B-2 CoX was also examined.
Result of reexamination of Compound B-2 CoX Dose and Schedule in Combination with DOXIL® in an HCT 116 Xenograft Mouse Model.
Examination of the Effect of Compound B-2 CoX Dose in Combination with 3 mg/kg DOXIL® in an HCT 116 Xenograft Tumor Model: A 3 mg/kg DOXIL® dose was examined in combination with a range of doses of Compound B-2 CoX (50-200 mg/kg) to identify the response of HCT 116 xenograft tumors to these combinations. […]

OVCAR-3 Xenograft Tumors = test: OVCAR-3 cell line xenograft: DOXIL given 16 hr prior to Compound B-2 CoX (PO); tumor growth; type: in vivo, nu/nu nude mice; details: 100 mg/kg Compound B-2 CoX qd×2 alone
Text: as §5

| Structure (SMILES) | pKAP1 and pH2AX level [1] | pKAP1 and pH2AX level [2] | % T/C (Day 19) (HCT 116 Xenograft Tumors) [%] | % T/C (Day 43) (OVCAR-3 Xenograft Tumors) [%] |
| --- | --- | --- | --- | --- |
| COc1cccc2c1C(=O)c1c(O)c3c(c(O)c1C2=O)C[C@@](O)(C(=O)CO)C[C@@H]3O[C@H]1C[C@H](N)[C@H](O)[C@H](C)O1 [Doxorubicin, reference compound] | increased level | increased level |  |  |
| [2H]c1nc(C)nc([2H])c1-c1cc(NC[C@@H](C)c2cccc3c(C(=O)NC)ccnc23)ncn1 [Compound B-2 CoX] |  |  | 106 | 83.2 |
